Laboratory results taken from patent US20110118288A1, “PHARMACEUTICAL COMPOSITION FOR TREATING HYPERTENSION AND METABOLIC SYNDROME AND USE THEREOF” (priority 2008, published 2011).

Assays:
[1] = test system: spontaneously hypertensive rats; test: Cardiac hypertrophy (left ventricular weight/body weight) in spontaneously hypertensive rats; format: in vivo, rat; details: SHR, after ten weeks of intragastric administration once every day
Procedure: Each group was given intragastric administration once every day for ten weeks. During the experiment, the diet, survival status and behaviors of the animals were recorded, and the animals were weighed once every day and the doses of administration were adjusted according to the body weights. Animals were sacrificed after ten weeks, and their hearts were taken out to determine the weights of left ventricles and calculate left ventricular indexes. After being sacrificed with 10% potassium chloride (2 mmol/L, 1 ml/rat), the rats were weighed. Heart was taken out and aortas and connective tissues outside of the heart were removed. The heart was cleaned by washing, dried with a filter paper, and weighed. The left ventricular was weighed after the atria were removed, and a ratio of left ventricular weight to body weight was calculated.

[2] = test system: spontaneously hypertensive rats; test: Urinary microalbumin (bromophenol blue absorbance) in spontaneously hypertensive rats; format: in vivo, rat; details: SHR, high sugar and high fat diets, intragastric once every day, twelve-hour overnight urine; time point not given in table
Procedure: Model control group: intragastric administration of same volume of physiological saline; […] L group: 5 mg/(kg·d) of losartan; R group: 1 mg/(kg·d) of rosuvastatin group; L+R group: 5 mg/(kg·d) of losartan+1 mg/(kg·d) of rosuvastatin calcium; P+R group: 1.5 mg/(kg·d) of pioglitazone+1 mg/(kg·d) of rosuvastatin calcium; L+P group: 5 mg/(kg·d) of losartan+1.5 mg/(kg·d) of pioglitazone; […] Each group was given intragastric administration once every day and fed with high sugar and high fat diets for six months. During the experiment, the diet, survival status and behaviors of the animals were recorded, and the animals were weighed once every day and the doses of administration were adjusted according to the body weights. 1. 10% (v/v) glacial acetic acid solution (pH 2.8). 2. 0.303 mol/L glycine-glacial acetic acid buffer solution (pH 3.0): 22.72 g of glycine was weighed and diluted with 10% glacial acetic acid solution to 1000 ml, to which 100 mg of NaN3 was added. The buffer solution can be kept for one year at room temperature after sealed. 3. Bromophenol blue (1.924 mmol/L) stock solution: 257.36 mg of BPB was precisely weighed and dissolved to 200 ml with absolute ethanol. The stock solution can be kept for one year in a refrigerator at 4° C. 4. Bromophenol blue (0.231 mmol/L) developing agent: to 60 ml of BPB stock solution, 2.5 ml Triton X-100 was added, and then diluted to 500 ml with glycine-glacial acetic acid buffer solution. The developing agent can be kept for one year at room temperature after sealed. Collection and detection of samples: rats were taken out and fed in a metabolic cage at the fourth week, the eighth week, the twelfth week and the sixteenth week, respectively, and twelve-hour overnight urinary collection was performed. Urinary amounts were precisely recorded. 4 ml of urine was sampled, treated with sodium azide, and centrifuged at 2000 r/min for 10 min.

[3] = test system: spontaneously hypertensive rats; test: Tail arterial blood pressure of conscious spontaneously hypertensive rats; format: in vivo, rat; details: for blood pressure, after treatment, eighth week / blood pressure, after treatment, fifth week / blood pressure, after treatment, first week / blood pressure, after treatment, third week: SHR, intragastric once every day, 2-5 h after administration; for blood pressure, before treatment: spontaneously hypertensive rats, baseline before treatment, n = 11
Procedure: Model control group: intragastric administration of same volume of physiological saline; P group: 0.5 mg/(kg·d) of pioglitazone; L group: 5 mg/(kg·d) of losartan; R group: 0.5 mg/(kg·d) of rosuvastatin calcium; L+R group: 5 mg/(kg·d) of losartan+0.5 mg/(kg·d) of rosuvastatin calcium; P+R group: 0.5 mg/(kg·d) of pioglitazone+0.5 mg/(kg·d) of rosuvastatin calcium; L+P group: 5 mg/(kg·d) of losartan+0.5 mg/(kg·d) of pioglitazone; […] Each group was given intragastric administration once every day for ten weeks. During the experiment, the diet, survival status and behaviors of the animals were recorded, and the animals were weighed once every day and the doses of administration were adjusted according to the body weights. Animals were sacrificed after ten weeks, and their hearts were taken out to determine the weights of left ventricles and calculate left ventricular indexes. Temperature was controlled between 18° C. and 22° C., humidity was controlled between 45% and 65%, and indoor natural light was used. Tail arterial blood pressure of a conscious rat was measured with Intelligent Non-invasive Blood Pressure Monitor BP-2006A (provided by Beijing Softron Co., Ltd.). Blood pressures were measured five times between two and five hours after intragastric administration in the first week, the third week, the fifth week and the eighth week, respectively. The average value of the blood pressures was used as the blood pressure of the sample.

[4] = test system: spontaneously hypertensive rats; test: Carotid intima-media thickness in spontaneously hypertensive rats; format: in vivo, rat; details: SHR carotid artery, high sugar and high fat diets, intragastric once every day for six months
Procedure: Each group was given intragastric administration once every day and fed with high sugar and high fat diets for six months. During the experiment, the diet, survival status and behaviors of the animals were recorded, and the animals were weighed once every day and the doses of administration were adjusted according to the body weights. After the animal was anesthetized and fixed, Even's blue (60 mg/kg) dye was injected via a femoral artery. After 30 minutes, myocardial perfusion was performed with 0.9% physiological saline as a perfusate at a perfusion pressure of 13.3 kPa until the effluent became clear. Then, 4% paraformaldehyde in physiological saline was perfused for 10 minutes for in situ fixation (the perfusion pressure was the same as above). The section of Even's blue-stained carotid artery was taken and further fixed with formalin solution, and three parts, i.e. the front, the middle and the rear parts, respectively, were sampled and embedded in paraffin, and then sliced discontinuously to obtain 8 to 10 layers, which were stained with HE. Three vascular sections were randomly selected and input into a computer image processing system so as to perform a computerized image measurement, thereby calculating the intima-media thickness.

[5] = test system: metabolic syndrome patients; test: Treatment of patients suffered from metabolic syndrome (FBG, FINS, HbAlC, TC/HDLC, Fg); format: in vivo, human
Description: Sixth-four metabolic syndrome patients were selected from those received treatment in Linyi People's Hospital from March 2007 to June 2008, and randomly divided into a control group and an experimental group. Control group: twenty-one males and eleven females, whose ages were between 61 and 72 and whose body mass indexes (BMI) were between 26 and 30; Experimental group: nineteen males and thirteen females, whose ages were between 62 and 70 and whose body mass indexes (BMI) were between 25.5 and 31; Before the treatment, all patients were subjected to blood lipids (including total cholesterol (TC), high-density lipid cholesterol (HDLC)) analysis, and detection of glycated hemoglobin (HbAlC), fasting blood glucose (FBG), fasting insulin (FINS) and fibrinogen (Fg). […] After eight weeks of continuous treatment, all of the above parameters were re-determined, in which blood glucose was determined with hexokinase method, blood lipid was determined with esterase method, fibrinogen was determined with coagulation method and chromogenic substrate assay, HbAlC was determined with chromatography, and fasting insulin was determined with chemiluminescence immunoassay. Statistical analysis: SPSS software was employed, and test of significance was performed by using a paired sample t test.

[6] = once every day, after eight weeks

Row | Structure (SMILES) | Left ventricular weight [1] | Left ventricular weight/body weight (×10^-3) [1] | urinary microalbumin, Absorbance A (600 nm) [2] | blood pressure, after treatment, eighth week [3] | blood pressure, after treatment, fifth week [3] | blood pressure, after treatment, first week [3] | blood pressure, after treatment, third week [3] | blood pressure, before treatment [3] | Maximum intima thickness [4] | Ratio of intima to media thickness [4] | FBG, before treatment ([5]; before treatment) | FINS, before treatment ([5]; before treatment) | Fg, before treatment ([5]; before treatment) | HbAlC, before treatment ([5]; before treatment) | TC/HDLC, before treatment ([5]; before treatment) | FBG, after treatment [5, 6] | FINS, after treatment [5, 6] | Fg, after treatment [5, 6] | HbAlC, after treatment [5, 6] | TC/HDLC, after treatment [5, 6]
1 | CCc1ccc(CCOc2ccc(CC3SC(=O)NC3=O)cc2)nc1 (stereo not shown) [P group, pioglitazone] | 0.986 g | 3.30 ×10^-3 | 0.5714 | 172 mmHg | 171 mmHg | 172 mmHg | 168 mmHg | 172 mmHg | 0.0958 mm | 1.8325 | 7.11 mmol/L | 31.5 mlU/L | 426.3 mg/dL | 6.92% | 4.25 | 6.69 mmol/L | 24.36 mlU/L | 390.8 mg/dL | 6.33% | 3.84
2 | CCCCc1nc(Cl)c(CO)n1Cc1ccc(-c2ccccc2-c2nn[nH]n2)cc1 [L group, losartan] | 0.873 g | 2.90 ×10^-3 | 0.6132 | 156 mmHg | 155 mmHg | 168 mmHg | 162 mmHg | 171 mmHg | 0.0926 mm | 1.8055 |  |  |  |  |  |  |  |  |  | 
3 | CC(C)c1nc(N(C)S(C)(=O)=O)nc(-c2ccc(F)cc2)c1/C=C/[C@@H](O)C[C@@H](O)CC(=O)O [R group, rosuvastatin calcium] | 0.960 g | 3.16 ×10^-3 | 0.5672 | 169 mmHg | 170 mmHg | 166 mmHg | 168 mmHg | 168 mmHg | 0.1153 mm | 2.0754 |  |  |  |  |  |  |  |  |  | 
